According to the OligoGym collection:
Oligonucleotides are given in HELM: sugar(base)linkage, 5' to 3'; d 2'-deoxyribose, r ribose, m 2'-O-methylribose, p phosphate. ss, as = sense and antisense strand

target: Mmp7 (rat); test: reporter assay of Huesken 2005; conditions: siRNA
Also: test concentration or dose not given here.

Substance	normalised inhibition (eCFP-eYFP dual reporter)
RNA1{r(G)p.r(A)p.r(A)p.r(G)p.r(C)p.r(C)p.r(C)p.r(A)p.r(G)p.r(G)p.r(U)p.r(G)p.r(U)p.r(G)p.r(G)p.r(A)p.r(G)p.r(U)p.r(G)p.d(T)p.d(T)}|RNA2{r(C)p.r(A)p.r(C)p.r(U)p.r(C)p.r(C)p.r(A)p.r(C)p.r(A)p.r(C)p.r(C)p.r(U)p.r(G)p.r(G)p.r(G)p.r(C)p.r(U)p.r(U)p.r(C)p.d(T)p.d(G)}$$$RNA1{StrandType:ss}|RNA2{StrandType:as}$	94%
RNA1{r(G)p.r(A)p.r(A)p.r(G)p.r(U)p.r(G)p.r(A)p.r(C)p.r(C)p.r(G)p.r(C)p.r(A)p.r(C)p.r(U)p.r(U)p.r(C)p.r(A)p.r(G)p.r(U)p.d(T)p.d(T)}|RNA2{r(A)p.r(C)p.r(U)p.r(G)p.r(A)p.r(A)p.r(G)p.r(U)p.r(G)p.r(C)p.r(G)p.r(G)p.r(U)p.r(C)p.r(A)p.r(C)p.r(U)p.r(U)p.r(C)p.d(T)p.d(C)}$$$RNA1{StrandType:ss}|RNA2{StrandType:as}$	40.5%
RNA1{r(G)p.r(A)p.r(A)p.r(U)p.r(U)p.r(A)p.r(U)p.r(C)p.r(U)p.r(U)p.r(A)p.r(G)p.r(G)p.r(A)p.r(A)p.r(A)p.r(U)p.r(U)p.r(U)p.d(T)p.d(T)}|RNA2{r(A)p.r(A)p.r(A)p.r(U)p.r(U)p.r(U)p.r(C)p.r(C)p.r(U)p.r(A)p.r(A)p.r(G)p.r(A)p.r(U)p.r(A)p.r(A)p.r(U)p.r(U)p.r(C)p.d(T)p.d(G)}$$$RNA1{StrandType:ss}|RNA2{StrandType:as}$	116%
RNA1{r(G)p.r(A)p.r(C)p.r(U)p.r(U)p.r(C)p.r(A)p.r(G)p.r(U)p.r(C)p.r(U)p.r(U)p.r(A)p.r(C)p.r(A)p.r(A)p.r(A)p.r(G)p.r(G)p.d(T)p.d(T)}|RNA2{r(C)p.r(C)p.r(U)p.r(U)p.r(U)p.r(G)p.r(U)p.r(A)p.r(A)p.r(G)p.r(A)p.r(C)p.r(U)p.r(G)p.r(A)p.r(A)p.r(G)p.r(U)p.r(C)p.d(T)p.d(T)}$$$RNA1{StrandType:ss}|RNA2{StrandType:as}$	92.9%
RNA1{r(G)p.r(A)p.r(G)p.r(G)p.r(G)p.r(A)p.r(A)p.r(A)p.r(U)p.r(G)p.r(C)p.r(A)p.r(G)p.r(A)p.r(A)p.r(G)p.r(U)p.r(U)p.r(C)p.d(T)p.d(T)}|RNA2{r(G)p.r(A)p.r(A)p.r(C)p.r(U)p.r(U)p.r(C)p.r(U)p.r(G)p.r(C)p.r(A)p.r(U)p.r(U)p.r(U)p.r(C)p.r(C)p.r(C)p.r(U)p.r(C)p.d(A)p.d(G)}$$$RNA1{StrandType:ss}|RNA2{StrandType:as}$	97.5%
RNA1{r(G)p.r(A)p.r(G)p.r(U)p.r(G)p.r(C)p.r(C)p.r(A)p.r(G)p.r(A)p.r(U)p.r(G)p.r(U)p.r(U)p.r(G)p.r(C)p.r(A)p.r(G)p.r(A)p.d(T)p.d(T)}|RNA2{r(U)p.r(C)p.r(U)p.r(G)p.r(C)p.r(A)p.r(A)p.r(C)p.r(A)p.r(U)p.r(C)p.r(U)p.r(G)p.r(G)p.r(C)p.r(A)p.r(C)p.r(U)p.r(C)p.d(C)p.d(A)}$$$RNA1{StrandType:ss}|RNA2{StrandType:as}$	104%
RNA1{r(G)p.r(A)p.r(U)p.r(G)p.r(A)p.r(G)p.r(U)p.r(A)p.r(C)p.r(U)p.r(G)p.r(G)p.r(A)p.r(C)p.r(G)p.r(G)p.r(A)p.r(U)p.r(G)p.d(T)p.d(T)}|RNA2{r(C)p.r(A)p.r(U)p.r(C)p.r(C)p.r(G)p.r(U)p.r(C)p.r(C)p.r(A)p.r(G)p.r(U)p.r(A)p.r(C)p.r(U)p.r(C)p.r(A)p.r(U)p.r(C)p.d(C)p.d(T)}$$$RNA1{StrandType:ss}|RNA2{StrandType:as}$	87.4%
RNA1{r(G)p.r(A)p.r(U)p.r(G)p.r(G)p.r(U)p.r(G)p.r(A)p.r(G)p.r(G)p.r(A)p.r(C)p.r(U)p.r(C)p.r(A)p.r(G)p.r(G)p.r(C)p.r(G)p.d(T)p.d(T)}|RNA2{r(C)p.r(G)p.r(C)p.r(C)p.r(U)p.r(G)p.r(A)p.r(G)p.r(U)p.r(C)p.r(C)p.r(U)p.r(C)p.r(A)p.r(C)p.r(C)p.r(A)p.r(U)p.r(C)p.d(C)p.d(G)}$$$RNA1{StrandType:ss}|RNA2{StrandType:as}$	61.8%
RNA1{r(G)p.r(A)p.r(U)p.r(G)p.r(U)p.r(U)p.r(G)p.r(C)p.r(A)p.r(G)p.r(A)p.r(A)p.r(U)p.r(U)p.r(C)p.r(U)p.r(C)p.r(A)p.r(C)p.d(T)p.d(T)}|RNA2{r(G)p.r(U)p.r(G)p.r(A)p.r(G)p.r(A)p.r(A)p.r(U)p.r(U)p.r(C)p.r(U)p.r(G)p.r(C)p.r(A)p.r(A)p.r(C)p.r(A)p.r(U)p.r(C)p.d(T)p.d(G)}$$$RNA1{StrandType:ss}|RNA2{StrandType:as}$	119%
RNA1{r(G)p.r(C)p.r(A)p.r(A)p.r(G)p.r(G)p.r(G)p.r(G)p.r(A)p.r(G)p.r(A)p.r(U)p.r(C)p.r(A)p.r(C)p.r(G)p.r(G)p.r(A)p.r(G)p.d(T)p.d(T)}|RNA2{r(C)p.r(U)p.r(C)p.r(C)p.r(G)p.r(U)p.r(G)p.r(A)p.r(U)p.r(C)p.r(U)p.r(C)p.r(C)p.r(C)p.r(C)p.r(U)p.r(U)p.r(G)p.r(C)p.d(G)p.d(A)}$$$RNA1{StrandType:ss}|RNA2{StrandType:as}$	90.5%
RNA1{r(G)p.r(C)p.r(A)p.r(G)p.r(A)p.r(A)p.r(U)p.r(U)p.r(A)p.r(U)p.r(C)p.r(U)p.r(U)p.r(A)p.r(G)p.r(G)p.r(A)p.r(A)p.r(A)p.d(T)p.d(T)}|RNA2{r(U)p.r(U)p.r(U)p.r(C)p.r(C)p.r(U)p.r(A)p.r(A)p.r(G)p.r(A)p.r(U)p.r(A)p.r(A)p.r(U)p.r(U)p.r(C)p.r(U)p.r(G)p.r(C)p.d(G)p.d(C)}$$$RNA1{StrandType:ss}|RNA2{StrandType:as}$	132%
RNA1{r(G)p.r(C)p.r(A)p.r(G)p.r(A)p.r(A)p.r(U)p.r(U)p.r(C)p.r(U)p.r(C)p.r(A)p.r(C)p.r(U)p.r(A)p.r(A)p.r(U)p.r(G)p.r(C)p.d(T)p.d(T)}|RNA2{r(G)p.r(C)p.r(A)p.r(U)p.r(U)p.r(A)p.r(G)p.r(U)p.r(G)p.r(A)p.r(G)p.r(A)p.r(A)p.r(U)p.r(U)p.r(C)p.r(U)p.r(G)p.r(C)p.d(A)p.d(A)}$$$RNA1{StrandType:ss}|RNA2{StrandType:as}$	94.3%
RNA1{r(G)p.r(C)p.r(A)p.r(G)p.r(A)p.r(C)p.r(A)p.r(U)p.r(C)p.r(A)p.r(U)p.r(A)p.r(A)p.r(U)p.r(U)p.r(G)p.r(G)p.r(C)p.r(U)p.d(T)p.d(T)}|RNA2{r(A)p.r(G)p.r(C)p.r(C)p.r(A)p.r(A)p.r(U)p.r(U)p.r(A)p.r(U)p.r(G)p.r(A)p.r(U)p.r(G)p.r(U)p.r(C)p.r(U)p.r(G)p.r(C)p.d(A)p.d(G)}$$$RNA1{StrandType:ss}|RNA2{StrandType:as}$	95.9%
RNA1{r(G)p.r(C)p.r(A)p.r(G)p.r(U)p.r(G)p.r(G)p.r(A)p.r(C)p.r(A)p.r(A)p.r(A)p.r(C)p.r(U)p.r(G)p.r(A)p.r(G)p.r(G)p.r(G)p.d(T)p.d(T)}|RNA2{r(C)p.r(C)p.r(C)p.r(U)p.r(C)p.r(A)p.r(G)p.r(U)p.r(U)p.r(U)p.r(G)p.r(U)p.r(C)p.r(C)p.r(A)p.r(C)p.r(U)p.r(G)p.r(C)p.d(A)p.d(C)}$$$RNA1{StrandType:ss}|RNA2{StrandType:as}$	32.3%
RNA1{r(G)p.r(C)p.r(C)p.r(A)p.r(C)p.r(U)p.r(C)p.r(A)p.r(U)p.r(G)p.r(A)p.r(A)p.r(C)p.r(U)p.r(U)p.r(G)p.r(G)p.r(C)p.r(C)p.d(T)p.d(T)}|RNA2{r(G)p.r(G)p.r(C)p.r(C)p.r(A)p.r(A)p.r(G)p.r(U)p.r(U)p.r(C)p.r(A)p.r(U)p.r(G)p.r(A)p.r(G)p.r(U)p.r(G)p.r(G)p.r(C)p.d(A)p.d(A)}$$$RNA1{StrandType:ss}|RNA2{StrandType:as}$	62.2%
RNA1{r(G)p.r(C)p.r(C)p.r(A)p.r(C)p.r(U)p.r(C)p.r(U)p.r(C)p.r(U)p.r(G)p.r(G)p.r(G)p.r(U)p.r(C)p.r(U)p.r(G)p.r(G)p.r(G)p.d(T)p.d(T)}|RNA2{r(C)p.r(C)p.r(C)p.r(A)p.r(G)p.r(A)p.r(C)p.r(C)p.r(C)p.r(A)p.r(G)p.r(A)p.r(G)p.r(A)p.r(G)p.r(U)p.r(G)p.r(G)p.r(C)p.d(C)p.d(A)}$$$RNA1{StrandType:ss}|RNA2{StrandType:as}$	63.3%
RNA1{r(G)p.r(C)p.r(C)p.r(A)p.r(C)p.r(U)p.r(G)p.r(U)p.r(C)p.r(C)p.r(C)p.r(A)p.r(G)p.r(G)p.r(A)p.r(A)p.r(G)p.r(C)p.r(C)p.d(T)p.d(T)}|RNA2{r(G)p.r(G)p.r(C)p.r(U)p.r(U)p.r(C)p.r(C)p.r(U)p.r(G)p.r(G)p.r(G)p.r(A)p.r(C)p.r(A)p.r(G)p.r(U)p.r(G)p.r(G)p.r(C)p.d(A)p.d(G)}$$$RNA1{StrandType:ss}|RNA2{StrandType:as}$	66%
RNA1{r(G)p.r(C)p.r(C)p.r(A)p.r(G)p.r(A)p.r(U)p.r(G)p.r(U)p.r(U)p.r(G)p.r(C)p.r(A)p.r(G)p.r(A)p.r(A)p.r(U)p.r(U)p.r(C)p.d(T)p.d(T)}|RNA2{r(G)p.r(A)p.r(A)p.r(U)p.r(U)p.r(C)p.r(U)p.r(G)p.r(C)p.r(A)p.r(A)p.r(C)p.r(A)p.r(U)p.r(C)p.r(U)p.r(G)p.r(G)p.r(C)p.d(A)p.d(C)}$$$RNA1{StrandType:ss}|RNA2{StrandType:as}$	100%
RNA1{r(G)p.r(C)p.r(C)p.r(A)p.r(G)p.r(G)p.r(C)p.r(C)p.r(U)p.r(C)p.r(G)p.r(G)p.r(C)p.r(G)p.r(G)p.r(A)p.r(G)p.r(A)p.r(U)p.d(T)p.d(T)}|RNA2{r(A)p.r(U)p.r(C)p.r(U)p.r(C)p.r(C)p.r(G)p.r(C)p.r(C)p.r(G)p.r(A)p.r(G)p.r(G)p.r(C)p.r(C)p.r(U)p.r(G)p.r(G)p.r(C)p.d(C)p.d(C)}$$$RNA1{StrandType:ss}|RNA2{StrandType:as}$	36.1%
RNA1{r(G)p.r(C)p.r(C)p.r(U)p.r(C)p.r(G)p.r(G)p.r(C)p.r(G)p.r(G)p.r(A)p.r(G)p.r(A)p.r(U)p.r(G)p.r(C)p.r(U)p.r(C)p.r(A)p.d(T)p.d(T)}|RNA2{r(U)p.r(G)p.r(A)p.r(G)p.r(C)p.r(A)p.r(U)p.r(C)p.r(U)p.r(C)p.r(C)p.r(G)p.r(C)p.r(C)p.r(G)p.r(A)p.r(G)p.r(G)p.r(C)p.d(C)p.d(T)}$$$RNA1{StrandType:ss}|RNA2{StrandType:as}$	90.2%
